Experimental data published in US20150011541A1, “PIPECOLATE-SULFONAMIDES FOR TREATMENT OF PSYCHIATRIC DISORDERS” (Max-Planck-Gesellschaft zur Förderung der Wissenschaften …, priority 2011, published 2015).

What was measured:
[1] = molecular target: T1, human FKBP51FK1 (Homo sapiens, UniProt Q13451); assay: Fluorescence polarization assay, binding to FK1 domain of FKBP51; details: for inhibition at 5 µM: at a concentration of 5 μM, library testing, read-out: FKBP 51 FK1 % inhibition; for IC50: binding affinity, fluorescence polarization assay
T1 sequence (Q13451 42-130 limits assumed): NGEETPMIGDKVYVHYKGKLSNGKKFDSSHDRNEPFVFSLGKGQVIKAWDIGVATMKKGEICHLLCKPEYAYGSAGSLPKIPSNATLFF

[2] = molecular target: T2, human FKBP52FK1 (Homo sapiens, UniProt Q02790); assay: Fluorescence polarization assay, binding to FK1 domain of FKBP52; details: for inhibition at 5 µM: at a concentration of 5 μM, library testing, read-out: FKBP52 FK1 % inhibition; for IC50: binding affinity, fluorescence polarization assay
T2 sequence (Q02790 50-138 limits assumed): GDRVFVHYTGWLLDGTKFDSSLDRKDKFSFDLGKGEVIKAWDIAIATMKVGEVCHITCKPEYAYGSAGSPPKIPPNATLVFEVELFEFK

Row | Structure (SMILES) | inhibition at 5 µM [1] | inhibition at 5 µM [2] | IC50 [1] | IC50 [2]
1 | COc1ccc(CC[C@@H](OC(=O)[C@@H]2CCCCN2S(=O)(=O)c2ccc(-c3ccccc3)s2)c2cccc(OCC(=O)O)c2)cc1OC [Compound 56, 2-(3-((R)-3-(3,4-dimethoxyphenyl)-1-((S)-1-(5-phenylthiophen-2-ylsulfonyl)piperidine-2-carbonyloxy)propyl)phenoxy)acetic acid] | 3.2% | 9.5% |  | 
2 | COc1ccc(CC[C@@H](OC(=O)[C@@H]2CCCCN2S(=O)(=O)c2cc(Cl)c(O)c(Cl)c2)c2cccc(OCC(=O)O)c2)cc1OC [Compound 21, 2-(3-((R)-1-((S)-1-(3,5-dichloro-4-hydroxyphenylsulfonyl)piperidine-2-carbonyloxy)-3-(3,4-dimethoxyphenyl)propyl)phenoxy)acetic acid] |  |  | 15.1 ± 1.4 µM | 56.6 ± 12.2 µM
3 | CCOC(=O)C1CCCCN1S(=O)(=O)c1cccc([N+](=O)[O-])c1 (centres unmarked) [Ref. 2, Ethyl 1-(3-nitrophenylsulfonyl)piperidine-2-carboxylate, reference compound] |  |  | > 100 µM | > 100 µM
4 | COc1ccc(CC[C@@H](OC(=O)[C@@H]2CCCCN2S(=O)(=O)c2cc(Cl)c(NC(C)=O)c(Cl)c2)c2cccc(OCC(=O)O)c2)cc1OC [Compound 23, 2-(3-((R)-1-((S)-1-(4-acetamido-3,5-dichlorophenylsulfonyl)piperidine-2-carbonyloxy)-3-(3,4-dimethoxyphenyl)propyl)phenoxy)acetic acid] |  |  | 8.9 ± 0.9 µM | 15.6 ± 2.2 µM
5 | COc1ccc(CC[C@@H](OC(=O)[C@@H]2CCCCN2S(=O)(=O)c2ccc3c(ccn3C)c2)c2cccc(OCC(=O)O)c2)cc1OC [Compound 50, 2-(3-((R)-3-(3,4-dimethoxyphenyl)-1-((S)-1-(1-methyl-1H-indol-5-ylsulfonyl)piperidine-2-carbonyloxy)propyl)phenoxy)acetic acid] | 10% | 10.4% |  | 
6 | COc1ccc(CC[C@@H](OC(=O)[C@@H]2CCCCN2S(=O)(=O)c2ccc(-c3ncccn3)cc2)c2cccc(OCC(=O)O)c2)cc1OC [Compound 1, 2-(3-((R)-3-(3,4-dimethoxyphenyl)-1-((S)-1-(4-(pyrimidin-2-yl)phenylsulfonyl)piperidine-2-carbonyloxy)propyl)phenoxy)acetic acid] | 16.3% | 15.2% | 62.8 ± 10.7 µM | 
7 | COc1ccc(CC[C@@H](OC(=O)[C@@H]2CCCCN2S(=O)(=O)c2ccc(C(F)(F)F)c(Cl)c2)c2cccc(OCC(=O)O)c2)cc1OC [Compound 48, 2-(3-((R)-1-((S)-1-(3-chloro-4-(trifluoromethyl)phenylsulfonyl)piperidine-2-carbonyloxy)-3-(3,4-dimethoxyphenyl)propyl)phenoxy)acetic acid] | -0.2% | 11.4% |  | 
8 | COc1ccc(CC[C@@H](OC(=O)[C@@H]2CCCCN2S(=O)(=O)c2ccc(F)cc2)c2cccc(OCC(=O)O)c2)cc1OC [Compound 38, 2-(3-((R)-3-(3,4-dimethoxyphenyl)-1-((S)-1-(4-fluorophenylsulfonyl)piperidine-2-carbonyloxy)propyl)phenoxy)acetic acid] | 4.3% | 6.6% |  | 
